Source: the supplement of paper PMC10307832

Key:
Assay in all cases: relative viability (nuclei count vs DMSO), 5 days (fraction); higher = more cells survive
CX-5461 + OSI-027 = compound: Cc1cnc(CNC(=O)c2c(=O)c3ccc(N4CCCN(C)CC4)nc3n3c2sc2ccccc23)cn1 [CX-5461] + COc1cccc2cc(-c3nc([C@H]4CC[C@H](C(=O)O)CC4)n4ncnc(N)c34)[nH]c12 [OSI-027] (partner 0.5 µM)
Summary of the method: (§1)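 Relative viability equals treated-well nuclei counts divided by vehicle-well nuclei counts. Counts came from 4× images of lung cancer cell lines grown in 1536-well plates for 5 days after pin-tool dosing on the day after seeding. Dosing used one drug alone or a fixed anchor-drug dose plus five library-drug doses (not always all listed) in √10 steps, and values are medians of duplicate plates.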

CX-5461 + Vorinostat = compound: Cc1cnc(CNC(=O)c2c(=O)c3ccc(N4CCCN(C)CC4)nc3n3c2sc2ccccc23)cn1 [CX-5461] + O=C(CCCCCCC(=O)Nc1ccccc1)NO [Vorinostat] (partner 1 µM)
Summary of the method: as §1

IMD-0354 + Linsitinib = compound: O=C(Nc1cc(C(F)(F)F)cc(C(F)(F)F)c1)c1cc(Cl)ccc1O [IMD-0354] + C[C@]1(O)C[C@@H](c2nc(-c3ccc4ccc(-c5ccccc5)nc4c3)c3c(N)nccn32)C1 [Linsitinib] (partner 1 µM)
Summary of the method: as §1

IMD-0354 + Navitoclax = compound: O=C(Nc1cc(C(F)(F)F)cc(C(F)(F)F)c1)c1cc(Cl)ccc1O [IMD-0354] + CC1(C)CCC(c2ccc(Cl)cc2)=C(CN2CCN(c3ccc(C(=O)NS(=O)(=O)c4ccc(N[C@H](CCN5CCOCC5)CSc5ccccc5)c(S(=O)(=O)C(F)(F)F)c4)cc3)CC2)C1 [Navitoclax] (partner 0.5 µM)
Summary of the method: as §1

Row | Cell Line | relative viability (CX-5461 + OSI-027; first compound 0.01 µM) | relative viability (CX-5461 + OSI-027; first compound 0.03162 µM) | relative viability (CX-5461 + OSI-027; first compound 0.3162 µM) | relative viability (CX-5461 + OSI-027; first compound 1 µM) | relative viability (CX-5461 + Vorinostat; first compound 0.01 µM) | relative viability (CX-5461 + Vorinostat; first compound 0.03162 µM) | relative viability (CX-5461 + Vorinostat; first compound 0.1 µM) | relative viability (CX-5461 + Vorinostat; first compound 0.3162 µM) | relative viability (CX-5461 + Vorinostat; first compound 1 µM) | relative viability (IMD-0354 + Linsitinib; first compound 0.04 µM) | relative viability (IMD-0354 + Linsitinib; first compound 0.1265 µM) | relative viability (IMD-0354 + Linsitinib; first compound 0.4 µM) | relative viability (IMD-0354 + Linsitinib; first compound 1.265 µM) | relative viability (IMD-0354 + Linsitinib; first compound 4 µM) | relative viability (IMD-0354 + Navitoclax; first compound 0.04 µM) | relative viability (IMD-0354 + Navitoclax; first compound 0.1265 µM) | relative viability (IMD-0354 + Navitoclax; first compound 0.4 µM) | relative viability (IMD-0354 + Navitoclax; first compound 1.265 µM) | relative viability (IMD-0354 + Navitoclax; first compound 4 µM) | relative viability (CX-5461 + OSI-027; first compound 0.1 µM)
1 | NCI-H1437 | 0.912 | 0.869 | 0.841 | 0.662 | 0.942 | 0.871 | 0.791 | 0.858 | 0.749 | 1.2 | 1.01 | 0.515 | 0.114 | 0.249 | 1.17 | 1.13 | 0.443 | 0.152 | 0.244 | 
2 | NCI-H1651 | 0.61 | 0.62 | 0.458 | 0.131 | 0.55 | 0.552 | 0.546 | 0.566 | 0.194 | 1.03 | 0.901 | 0.429 | 0.0622 | 0.0566 | 1.05 | 1.16 | 0.337 | 0.052 | 0.0654 | 
3 | NCI-H1666 | 0.894 | 0.875 | 0.756 | 0.636 | 0.986 | 1.05 | 1.07 | 0.981 | 0.975 | 0.747 | 0.957 | 0.609 | 0.17 | 0.299 | 1.09 | 0.932 | 0.83 | 0.153 | 0.174 | 0.664
4 | NCI-H1734 | 0.586 | 0.646 | 0.499 | 0.445 | 0.83 | 0.908 | 0.744 | 0.278 | 0.35 | 1.04 | 0.936 | 0.513 | 0.596 | 0.231 | 0.905 | 0.86 | 0.446 | 0.412 | 0.133 | 0.706
5 | NCI-H1755 | 0.732 | 0.736 | 0.646 | 0.655 | 0.806 | 0.793 | 0.735 | 0.722 | 0.667 | 0.998 | 1.02 | 0.665 | 0.666 | 0.22 | 1.1 | 1.05 | 0.591 | 0.481 | 0.16 | 0.713
6 | NCI-H1793 | 0.296 | 0.289 |  | 0.198 | 0.894 | 0.927 | 0.786 | 0.367 | 0.645 | 1.15 | 0.802 | 0.349 | 0.298 | 0.224 | 0.356 | 0.472 | 0.391 | 0.282 | 0.246 | 0.318
7 | NCI-H1915 | 0.664 | 0.692 | 0.599 | 0.605 | 0.554 | 0.567 | 0.503 | 0.427 | 0.482 | 0.968 | 1.12 | 0.944 | 0.866 | 0.255 | 0.708 | 0.857 | 0.412 | 0.661 | 0.219 | 0.601
8 | NCI-H1944 | 0.49 | 0.446 | 0.252 | 0.259 | 0.538 | 0.569 | 0.383 | 0.25 | 0.271 | 1.08 | 1.12 |  | 1.24 | 0.111 | 0.962 | 1.13 |  | 1.01 | 0.125 | 0.377
9 | NCI-H1975 | 0.842 | 0.735 | 0.865 | 0.329 | 0.686 | 0.719 | 0.684 | 0.696 | 0.459 | 1.15 | 0.938 | 0.517 | 0.178 | 0.207 | 1.28 | 1.19 | 0.528 | 0.44 | 0.184 | 0.661
10 | NCI-H1993 | 0.562 | 0.591 | 0.511 | 0.448 | 1.11 | 0.988 | 0.889 | 0.403 | 0.638 | 0.671 | 0.747 | 0.696 | 0.491 | 0.567 | 0.975 | 0.792 | 0.722 | 0.552 | 0.576 | 0.625
11 | NCI-H2009 | 0.696 | 0.651 | 0.697 | 0.516 | 0.755 | 0.716 | 0.652 | 0.661 | 0.332 | 1.16 | 1.12 | 1.02 | 0.465 | 0.139 | 1.22 | 1.02 | 0.915 | 0.642 | 0.115 | 0.471
12 | NCI-H2023 | 0.387 | 0.386 | 0.329 | 0.0856 | 0.564 | 0.355 |  | 0.15 | 0.0756 | 0.81 | 0.569 | 0.558 | 0.197 | 0.121 | 1.16 | 1.05 | 0.561 | 0.257 | 0.121 | 0.184
13 | NCI-H2085 | 0.845 | 0.75 | 0.557 | 0.557 | 0.854 | 0.82 | 0.708 | 0.865 | 0.719 | 0.786 | 0.976 | 0.687 | 0.497 | 0.278 | 1.17 | 1.16 | 0.859 | 0.62 | 0.251 | 0.625
14 | NCI-H2087 | 0.61 | 0.499 | 0.369 | 0.407 | 0.625 | 0.709 | 0.754 | 0.696 | 0.527 | 0.887 | 0.659 | 0.308 | 0.127 | 0.203 | 0.918 | 0.815 | 0.363 | 0.111 | 0.158 | 0.474
15 | NCI-H2126 | 0.75 | 0.684 | 0.783 | 0.63 | 0.725 | 0.861 | 0.79 | 0.522 | 0.881 | 0.644 | 0.685 | 0.715 | 0.577 | 0.316 | 0.905 | 0.817 | 0.673 | 0.79 | 0.269 | 0.717
16 | NCI-H2228 | 0.629 | 0.428 | 0.272 | 0.13 | 0.516 | 0.66 | 0.54 | 0.793 | 0.114 | 0.563 | 0.795 | 0.544 | 0.167 | 0.409 | 0.738 | 1.12 | 0.589 | 1.27 | 0.355 | 0.361
17 | NCI-H2347 | 0.326 | 0.395 | 0.553 | 0.395 | 0.457 | 0.608 | 0.512 | 0.552 | 0.501 | 1.04 | 1.08 | 0.824 | 0.511 | 0.447 | 0.818 | 0.838 | 0.55 | 0.35 | 0.255 | 0.411
18 | NCI-H2405 | 0.607 | 0.639 | 0.632 | 0.616 | 1.04 | 0.872 | 0.994 | 0.939 | 0.669 | 1.18 | 1.06 | 0.695 | 0.335 | 0.185 | 1.08 | 0.952 | 0.612 | 0.174 | 0.113 | 0.717
19 | NCI-H3122 | 1.07 | 0.882 | 0.672 | 0.668 | 1.02 | 1.02 | 1.12 | 1.07 | 0.967 | 1.06 | 1.12 | 0.742 | 0.573 | 0.15 | 1.01 | 1.09 | 0.829 | 0.987 | 0.155 | 0.938
20 | PC-3 [JPC-3] | 0.828 | 0.811 | 0.668 | 0.707 | 0.765 |  | 0.783 | 0.869 | 0.72 | 0.975 | 0.945 | 0.826 | 0.734 | 0.251 | 0.712 | 0.823 | 0.638 | 0.527 | 0.264 | 0.773
21 | PC-14 | 0.927 | 1.01 | 0.729 | 0.236 | 0.65 | 0.797 | 0.533 | 0.527 | 0.106 | 1.01 | 0.841 | 0.604 | 0.403 | 0.175 | 1.04 | 0.937 | 0.425 | 0.192 | 0.103 | 0.85
22 | RERF-LC-KJ | 0.56 | 0.628 | 0.528 | 0.434 | 0.724 | 0.756 | 0.532 | 0.589 | 0.54 | 0.948 | 0.944 | 0.66 | 0.298 | 0.208 | 0.843 | 1.1 | 0.496 | 0.109 | 0.228 | 0.572
23 | SK-LU-1 | 0.347 | 0.321 |  | 0.203 | 0.826 | 0.721 | 0.777 | 0.777 | 0.538 | 1.41 | 0.863 | 0.621 | 0.24 | 0.264 | 1.26 | 1.17 | 0.223 | 0.386 | 0.126 | 0.386
24 | SK-MES-1 | 0.586 | 0.57 | 0.607 | 0.372 | 1.22 | 1.22 | 1.13 | 1.19 | 0.654 | 1.05 | 1.08 | 0.762 | 0.719 | 0.221 | 1.48 | 1.12 | 0.649 | 0.441 | 0.314 | 0.582
25 | SW 1573 | 0.61 | 0.621 | 0.477 | 0.179 | 0.726 | 0.668 | 0.116 | 0.15 | 0.214 | 0.764 | 0.697 | 0.589 | 0.493 | 0.102 | 1.15 | 0.948 | 0.421 | 0.571 | 0.102 | 0.401
